Results: paper PMC2731040 (BMC Clinical Pharmacology, 2009)

Test system: noradrenergic tone
Assay: Urinary MHPG-S excretion (surrogate for noradrenergic tone, MAO-A metabolite)
Type: in vivo, human
Excerpt: The interactions between MAO-A inhibitors and cocaine administered are largely unexplored. […] Therefore, measurement of dopaminergic and noradrenergic tone may be important in predicting toxic events. We measured dopaminergic tone with the surrogate marker of plasma HVA, the major brain metabolite of dopamine, and serum levels of prolactin, a hormone whose secretion is inhibited by dopamine. The surrogate for noradrenergic tone was urine concentrations of MHPG-S. In order to assess the degree of MAO-A and MAO-B inhibition, we assayed concentrations of a substrate of MAO-B, phenylethylamine (PEA). PEA would be expected to increase with MAO-B inhibition, and concentrations of MHPG-S, which is a metabolite of norepinephrine produced by MAO-A primarily in the brain [20], would be expected to decrease.
When subjects were in the GCRC, all urine was collected and volumes recorded. Following each cocaine infusion, urine was collected in fractions from 0 to 24, 24 to 48, and 48 to 72 hours (timed from the start of the infusion). Samples were then frozen at -70°C until analyzed. […] A qualitative screen for drugs of abuse was obtained every other day for the entire study period.
Concentrations of MHPG-S in urine were determined using LC-MS/MS [29]. […] As urinary creatinine excretion is directly related to glomerular filtration and renal blood flow, and urinary creatinine excretion is relatively constant (~1 gm/day), it can be used to estimate concentrations of a substance during a 24 hour urine collection period. Using ratios of the concentrations of MHPG-S to creatinine obtained from assays of these spot urine samples, MGPG-S concentrations during the outpatient period (when subjects would be unlikely to provide accurate 24 hour urine collections) were compared to those from urine samples on inpatient days.

Compound: COC(=O)[C@H]1[C@@H](OC(=O)c2ccccc2)C[C@@H]2CC[C@H]1N2C [Cocaine, cocaine]
- Total Amount of MHPG-S Excreted in the 24 Hour Urine Collection (Day 3–4 After Cocaine Preselegiline): 1.44 ± 0.43 mg
- Urine MHPG-S/creatinine concentration ratios vs the day before cocaine challenge (second day after the first cocaine challenge, p < 0.05): increased significantly
